# The source made the active and inactive calls.
# Key:
# Escherichia coli [1] = experiment: microbe, parasite or virus in culture
# Escherichia coli [2] = experiment: microbe, parasite or virus in culture; remark: listed apart in the source
# [3] = Fluorescence polarization-based biochemical high throughput dose response assay for activators of the Protein Kinase A-R1A (PKA-R1A) complex. [Related pubchem assays (depositor defined):AID504704, AID504707, AID504799, AID504800]
# [4] = Fluorescence polarization-based biochemical high throughput dose response assay for activators of the Protein Kinase A-R2B (PKA-R2B) complex. [Related pubchem assays (depositor defined):AID504700, AID504704, AID504796, AID504797]
# [5] = biological target: T1, Dual specificity protein phosphatase 3 (Homo sapiens, UniProt P51452); experiment: SAR VHR1 Fluorescent Assay for In Vitro dose response studies Set 3. [Related pubchem assays (depositor defined):AID1654, AID1661, AID1878]; assay type: functional
# T1 sequence (P51452 whole entry): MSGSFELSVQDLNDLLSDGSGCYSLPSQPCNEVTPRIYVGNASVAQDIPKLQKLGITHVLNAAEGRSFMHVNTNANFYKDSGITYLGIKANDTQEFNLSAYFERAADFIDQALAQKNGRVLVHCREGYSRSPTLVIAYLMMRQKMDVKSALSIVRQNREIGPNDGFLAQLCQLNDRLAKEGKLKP
# [6] = biological target: T1, Dual specificity protein phosphatase 3; experiment: SAR VHR1 Fluorescent Assay for In Vitro dose response studies. [Related pubchem assays (depositor defined):AID1654, AID1661, AID1878, AID1992, AID2004, AID2070, AID2085]; assay type: functional
# [7] = biological target: Glucose-6-phosphate 1-dehydrogenase (Homo sapiens, UniProt P11413); experiment: inhibition of Homo sapiens G6PD, dose series – biochemical, fluorescence, selectivity assay for P. falciparum G6PD inhibitor project, dose response (AID 504792); assay type: functional
# Glucose-6-phosphate 1-dehydrogenase, sequence (P11413 whole entry): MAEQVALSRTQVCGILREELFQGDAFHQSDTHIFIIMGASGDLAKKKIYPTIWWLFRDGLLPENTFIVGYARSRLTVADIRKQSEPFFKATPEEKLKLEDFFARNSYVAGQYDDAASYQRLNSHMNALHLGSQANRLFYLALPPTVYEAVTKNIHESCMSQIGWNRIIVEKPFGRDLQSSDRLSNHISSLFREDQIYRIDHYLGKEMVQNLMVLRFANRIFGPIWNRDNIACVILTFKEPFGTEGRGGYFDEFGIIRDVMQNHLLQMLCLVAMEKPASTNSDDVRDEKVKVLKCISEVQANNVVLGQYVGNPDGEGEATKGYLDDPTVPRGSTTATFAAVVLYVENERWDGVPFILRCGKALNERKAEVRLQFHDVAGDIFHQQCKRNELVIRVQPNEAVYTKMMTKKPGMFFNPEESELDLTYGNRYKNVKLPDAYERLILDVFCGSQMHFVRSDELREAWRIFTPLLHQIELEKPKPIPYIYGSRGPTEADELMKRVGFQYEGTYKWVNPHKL
# [8] = biological target: T2, Tyrosine-protein phosphatase non-receptor type 7 (Homo sapiens, UniProt P35236); experiment: SAR analysis of chemical inhibitors of HePTP using a Fluorescent assay - Set 2. [Related pubchem assays (depositor defined):AID1059, AID1077, AID1661, AID2085, AID521]; assay type: functional
# T2 sequence (P35236 whole entry): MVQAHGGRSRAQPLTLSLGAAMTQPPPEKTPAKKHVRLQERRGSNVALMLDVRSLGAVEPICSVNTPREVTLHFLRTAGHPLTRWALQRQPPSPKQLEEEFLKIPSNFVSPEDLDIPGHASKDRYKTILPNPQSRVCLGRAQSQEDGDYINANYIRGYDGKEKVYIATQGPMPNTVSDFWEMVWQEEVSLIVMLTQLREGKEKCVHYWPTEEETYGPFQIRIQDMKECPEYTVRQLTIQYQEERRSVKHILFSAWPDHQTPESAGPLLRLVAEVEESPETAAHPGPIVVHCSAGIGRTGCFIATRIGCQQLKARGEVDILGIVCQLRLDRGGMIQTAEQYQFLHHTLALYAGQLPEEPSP
# [9] = biological target: T1, Dual specificity protein phosphatase 3; experiment: VHR1 phosphatase inhibitors, primary screen, biochemical, absorbance, uHTS (AID 1654)
# [10] = biological target: T1, Dual specificity protein phosphatase 3; experiment: SAR VHR1 absorbance Assay for In Vitro dose response studies. [Related pubchem assays (depositor defined):AID1654, AID1661, AID1878, AID1992, AID2004]
# [11] = biological target: T2, Tyrosine-protein phosphatase non-receptor type 7; experiment: redox-active compounds inhibiting HePTP phosphatase – biochemical, fluorescence, mechanism study (AID 2068); assay type: functional
# [12] = biological target: T3, Dual specificity protein phosphatase 6 (Rattus norvegicus, UniProt Q64346); experiment: inhibition of rat DUSP6 enzyme activity – biochemical, in vitro, primary screen (AID 425)
# T3 sequence (Q64346 whole entry): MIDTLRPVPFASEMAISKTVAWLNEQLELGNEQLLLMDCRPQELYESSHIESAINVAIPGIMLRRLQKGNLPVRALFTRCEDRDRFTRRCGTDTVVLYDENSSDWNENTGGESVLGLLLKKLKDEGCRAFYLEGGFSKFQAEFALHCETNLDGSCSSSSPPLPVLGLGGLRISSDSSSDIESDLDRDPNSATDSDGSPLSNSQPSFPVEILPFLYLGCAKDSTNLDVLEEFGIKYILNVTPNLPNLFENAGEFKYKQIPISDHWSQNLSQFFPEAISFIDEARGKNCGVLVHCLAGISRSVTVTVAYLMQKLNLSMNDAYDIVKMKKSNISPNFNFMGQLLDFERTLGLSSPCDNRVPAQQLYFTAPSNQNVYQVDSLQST
# [13] = biological target: T1, Dual specificity protein phosphatase 3; experiment: VHR1 phosphatase inhibitors, biochemical (AID 1878)
# [14] = biological target: T4, Tyrosine-protein phosphatase non-receptor type 11 (Homo sapiens, UniProt Q06124); experiment: PTPN11 enzyme inhibitors – biochemical, selectivity assay for STEP inhibitor project, dose response (AID 602367); assay type: functional; details: read-out: IC50_Mean
# T4 sequence (Q06124 whole entry): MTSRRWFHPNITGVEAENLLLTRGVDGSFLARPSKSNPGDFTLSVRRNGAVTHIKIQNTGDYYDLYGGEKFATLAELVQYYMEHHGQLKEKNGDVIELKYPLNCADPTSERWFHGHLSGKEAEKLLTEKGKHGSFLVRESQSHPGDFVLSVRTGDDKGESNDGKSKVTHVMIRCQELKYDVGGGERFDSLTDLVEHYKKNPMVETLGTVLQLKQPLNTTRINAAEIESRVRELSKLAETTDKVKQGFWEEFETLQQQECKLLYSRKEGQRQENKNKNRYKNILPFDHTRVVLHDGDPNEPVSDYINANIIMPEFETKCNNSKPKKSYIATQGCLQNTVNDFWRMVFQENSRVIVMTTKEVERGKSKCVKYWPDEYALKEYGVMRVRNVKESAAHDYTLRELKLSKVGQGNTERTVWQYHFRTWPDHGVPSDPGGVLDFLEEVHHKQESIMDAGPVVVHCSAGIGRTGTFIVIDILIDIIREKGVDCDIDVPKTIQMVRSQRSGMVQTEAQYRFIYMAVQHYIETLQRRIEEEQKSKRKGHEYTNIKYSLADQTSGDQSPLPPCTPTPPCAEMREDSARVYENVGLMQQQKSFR
# [15] = biological target: T1, Dual specificity protein phosphatase 3; experiment: VHR phosphatase inhibition, dose response, selectivity assay for STEP inhibitor project, biochemical (AID 602374); assay type: functional; details: read-out: IC50_Mean
# [16] = biological target: T3, Dual specificity protein phosphatase 6; experiment: SAR analysis of inhibitors of MKP-3 - Set 2. [Related pubchem assays (depositor defined):AID1055, AID1661, AID425, AID553, AID566]; assay type: functional
# [17] = biological target: T3, Dual specificity protein phosphatase 6; assay type: functional
# [18] = biological target: T5, Tyrosine-protein phosphatase non-receptor type 22 (Homo sapiens, UniProt Q9Y2R2); experiment: lymphoid phosphatase LYP inhibitors – biochemical, selectivity assay for STEP inhibitor project, dose response (AID 624241); assay type: functional
# T5 sequence (Q9Y2R2 whole entry): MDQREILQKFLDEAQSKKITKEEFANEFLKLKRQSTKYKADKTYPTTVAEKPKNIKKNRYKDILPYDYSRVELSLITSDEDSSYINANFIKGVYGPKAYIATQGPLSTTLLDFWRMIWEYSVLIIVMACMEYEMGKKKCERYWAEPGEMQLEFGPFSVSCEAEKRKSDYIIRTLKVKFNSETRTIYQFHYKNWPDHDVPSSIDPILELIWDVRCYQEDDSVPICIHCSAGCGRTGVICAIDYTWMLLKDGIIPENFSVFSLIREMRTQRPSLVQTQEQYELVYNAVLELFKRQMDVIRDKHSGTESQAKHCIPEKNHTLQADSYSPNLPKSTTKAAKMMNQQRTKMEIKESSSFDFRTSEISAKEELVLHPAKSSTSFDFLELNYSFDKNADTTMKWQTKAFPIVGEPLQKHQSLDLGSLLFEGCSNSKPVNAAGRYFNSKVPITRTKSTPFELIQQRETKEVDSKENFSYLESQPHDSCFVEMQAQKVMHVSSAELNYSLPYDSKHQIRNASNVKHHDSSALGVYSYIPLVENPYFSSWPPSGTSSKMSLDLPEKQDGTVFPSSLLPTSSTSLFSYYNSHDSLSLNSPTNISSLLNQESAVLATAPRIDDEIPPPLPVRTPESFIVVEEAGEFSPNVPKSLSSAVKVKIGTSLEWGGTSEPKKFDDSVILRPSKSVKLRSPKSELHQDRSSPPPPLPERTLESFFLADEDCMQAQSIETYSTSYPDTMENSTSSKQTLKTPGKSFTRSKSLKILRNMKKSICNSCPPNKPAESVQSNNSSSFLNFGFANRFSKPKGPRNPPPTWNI
# [19] = biological target: T1, Dual specificity protein phosphatase 3; experiment: SAR VHR1 Fluorescent Assay for In Vitro dose response studies Set 2. [Related pubchem assays (depositor defined):AID1654, AID1661, AID1878]; assay type: functional
# [20] = biological target: T6, Tyrosine-protein phosphatase non-receptor type 5 (Homo sapiens, UniProt P54829); experiment: PTPN5 enzyme inhibition – biochemical, fluorescence intensity, uHTS hits, confirmation (AID 602372); assay type: functional; details: read-out: IC50_Mean
# T6 sequence (P54829 whole entry): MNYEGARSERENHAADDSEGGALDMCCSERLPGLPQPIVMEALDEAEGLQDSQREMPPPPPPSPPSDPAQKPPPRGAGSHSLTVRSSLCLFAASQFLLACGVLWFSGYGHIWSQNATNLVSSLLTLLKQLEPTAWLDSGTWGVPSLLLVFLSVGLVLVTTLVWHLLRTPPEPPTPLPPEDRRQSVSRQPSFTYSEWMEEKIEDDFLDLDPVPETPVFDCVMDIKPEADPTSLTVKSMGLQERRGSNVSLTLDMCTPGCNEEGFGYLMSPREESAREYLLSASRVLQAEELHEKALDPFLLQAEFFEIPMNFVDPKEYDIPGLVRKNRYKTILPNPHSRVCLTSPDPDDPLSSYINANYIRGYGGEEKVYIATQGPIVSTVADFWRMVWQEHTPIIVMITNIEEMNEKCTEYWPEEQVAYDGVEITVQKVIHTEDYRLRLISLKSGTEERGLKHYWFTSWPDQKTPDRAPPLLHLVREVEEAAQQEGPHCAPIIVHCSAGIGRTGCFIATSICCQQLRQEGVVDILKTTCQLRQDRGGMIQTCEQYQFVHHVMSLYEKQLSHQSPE
# [21] = viability loss of HMLE_sh_eGFP cells – cell-based, luminescence, counter-screen for HMLE_sh_ECad selective toxicity project, dose response (AID 463074); assay type: functional, Homo sapiens;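 further: HMLE human mammary epithelial cells expressing control shRNA against eGFP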
# [22] = Luminescence Cell-Based Dose Retest to Confirm Inhibitors of Cancer Stem Cells. [Related pubchem assays (depositor defined):AID2717, AID2721]; assay type: functional; details: Homo sapiens
smiles,measurement,setting,value
Cc1ccccc1C(=O)N1CCC(C(=O)NC(C)c2ccc(-n3ccnc3)cc2)CC1 (configuration not stated),AC50,Escherichia coli [1],69.2 µM (active)
same,AC50,Escherichia coli [2],24.5 µM (active)
Nc1ncnc2c1nc(Br)n2[C@@H]1O[C@@H]2COP(=O)(O)O[C@H]2[C@H]1O,EC50,[3],0.0344 µM (active)
same,EC50,[4],0.0511 µM (active)
O=C(Nc1ccc(-c2nc3ccccc3s2)cc1)c1cc(-n2cnnc2)ccc1Cl,IC50,[5],12.1 µM (active)
COc1ccc(NC(=S)N(CCC(C)C)C2CCN(C(C)C)CC2)cc1Cl,IC50,[6],> 99 µM (inactive)
same,IC50,[7],> 80 µM (inactive)
same,IC50,[8],0.662 µM (active)
same,IC50,[9],2.09 µM (active)
same,IC50,[10],1.26 µM (active)
same,IC50,[11],< 0.195 µM (active)
same,IC50,[12],> 158 µM (not active)
same,IC50,[13],4.01 µM (active)
same,IC50,[14],0.676 µM (active)
same,IC50,[15],0.271 µM (active)
same,IC50,[16],> 100 µM (inactive)
same,IC50,[17],> 99 µM (inactive)
same,IC50,[18],21 µM (inactive)
same,IC50,[19],0.216 µM (active)
same,IC50,[20],3.86 µM (active)
COc1ccccc1N=C(S)N=Nc1c(O)[nH]c2ccc(Br)cc12,AC50,[21],31.4 µM (active)
same,AC50,[22],0.739 µM (active)

# — ChEMBL document CHEMBL1201862, “PubChem BioAssay data set” (2004)
